# Laboratory results taken from publication PMC11979273, “A phase I study to evaluate the safety, tolerability, and pharmacokinetics of HEC113995PA·H2O, a novel dual-acting serotonergic antidepressant, in healthy subjects” (Frontiers in Pharmacology, 2025).
# Read-outs that look alike come from different tables or passages of the source.
# Tests used:
# [1] = Food effect study, safety (adverse events); format: in vivo, human
# Source text: (§1) A total of 18 healthy subjects of both genders, were assigned randomly to three sequences A, B, and C (n = 6). All subjects received HEC113995PA·H2O tablets, with a total of 3 times administered during the trial, once per cycle, and a washout period of ≥11 days. In sequence A, the order of administration was as follows: fasting, after a standard meal, and after a high-fat meal. In sequence B, the order of administration was after a standard meal, after a high-fat meal, and fasting. Sequence C subjects were administered in the following order: after a high-fat meal, fasting, and after a standard meal. During the fed periods, a single oral dose of HEC113995PA·H2O tablet 20 mg was administered within 30 min after consumption of a standard meal (total calories: approximately 600 kcal), or a high-fat, high-calorie meal (total calories: approximately 800 kcal–1,000 kcal, which derives about 150, 250, and 500–600 kcal from protein, carbohydrate, and fat, respectively). Serial blood samples were collected before and after each cycle for PK determination of plasma concentration and the evaluation of pharmacokinetic characteristics. Safety and tolerability were assessed on days 4 and 28.
# Safety indicators were assessed through adverse events (AE), clinical laboratory tests (including blood routine, blood biochemistry, urine routine), vital signs monitoring (ear temperature), pulse, respiration and blood pressure in a sitting position), 12-lead electrocardiogram (ECG) and physical examinations. Adverse events (AE) and serious adverse events (SAE) were evaluated following the criteria outlined in National Cancer Institute Common Terminology Criteria for Adverse Events (NCI-CTCAE) version 5.0.
# Any adverse events that occurred in all subjects during the clinical trial were recorded with the following details: AE name, occurrence time, end time, severity, whether it was classified as a SAE, severity criteria (if applicable), treatment measures and outcomes, actions taken on investigational drug due to the AE, and the causal relationship between the AE and administrated drug, etc. Each AE was recorded separately.
# [2] = Food effect study, plasma pharmacokinetics; format: in vivo, human; settings: for Cmax / MRT / half-life / Vd/F / Tmax: po, 20 mg; for Vd/F: read-out: Vz/F; for Tmax: N = 18, median (min, max)
# Source text: as §1
# In the first dose group of single ascending-dose study, PK blood samples were collected at 0.5 h before administration and 0.5, 1, 1.5, 2, 2.5, 3, 4, 5, 6, 8, 10, 12, 24, 36, 48, and 72 h after administration. In other SAD groups, MAD groups and food effect study, PK blood samples were collected at 0.5 h before administration, and 1, 2, 3, 4, 5, 6, 7, 8, 10, 12, 24, 48, 72, 96, 120 and 144 h after administration. Approximately 4 mL of venous blood was obtained from each collection and placed in a vacuum collection vessel containing K2EDTA anticoagulant. The blood was centrifuged and packed according to the instruction provided by the Biological Sample Detection and Analysis Unit. Briefly, all samples were centrifuged at 4°C, 1,500 g for 10 min within 0.5 h after blood collection. After centrifugation, the plasma was aliquoted into two cryogenic storage tubes. The first tube (Tube A) contained at least 0.8 mL of plasma for analytical testing, and the remaining plasma is allocated into the backup tube (Tube B). The plasma samples were stored at −80°C within 1 h after aliquoting for further analysis.
# The concentration of HEC113995PA·H2O in human plasma samples (K2EDTA) was quantitatively analyzed using the LC-MS/MS method. Plasma samples (50 μL) were processed using protein precipitation with 5 μL deuterated internal standard (HEC124659) and 100 μL acetonitrile. The Shimadzu LCMS-8060 system coupled with a GL Sciences Inc. InertSustain AQ-C18 HP column (50 × 2.1 mm, 3 μm) achieved chromatographic separation through gradient elution using 0.04% TFA aqueous solution (pH 2.1) and acetonitrile at 0.4 mL/min. ESI-positive mode detection employed optimized parameters: 300°C interface temperature, 250°C DL temperature, 3 L/min nebulizer gas, and 400°C heating block temperature.
# Using WinNonlin 7.0 for non-compartmental analysis (NCA), pharmacokinetic (PK) parameters were meticulously calculated based on the actual sampling times for plasma, urine, and fecal samples from each subject post-administration. These parameters encompassed a comprehensive range, including the area under the concentration–time curve (AUC), AUC from time zero (pre-dose) to the time of the last measurable concentration (AUC0-t), and AUC from time zero (pre-dose) to infinity (AUC0-∞). Additionally, maximum observed plasma concentration (Cmax), time to achieve maximum plasma concentration (Tmax), terminal elimination half-life (t1/2), elimination rate constant (Ke), apparent volume of distribution (Vd/F), clearance rate (CL/F), and mean residence time (MRT) were also determined. The AUC0-t and AUC0-∞ values were computed using the linear trapezoidal rule method. Tmax and Cmax were ascertained based on the actual observed data. […]
# mice = test: Behavioral despair models, mice; format: in vivo; settings: single, multiple, and chronic administrations, unpublished data
# [3] = FE trial 20 mg, 1 case, after a high-fat meal
# [4] = FE trial 20 mg, after a high-fat meal
# [5] = FE trial 20 mg, after a high-fat meal, 5 incidents
# [6] = FE trial 20 mg, after a standard meal
# [7] = FE trial 20 mg, fasting conditions
# [8] = FE trial 20 mg, overall, 2 cases
# [9] = both sexes, human, plasma, single oral 20 mg, fasted, N = 18, mean (SD)
# [10] = both sexes, human, plasma, single oral 20 mg, fed with high-fat, high-calorie meal, N = 18, mean (SD)
# [11] = both sexes, human, plasma, single oral 20 mg, fed with standard meal, N = 18, mean (SD)
# [12] = single 20 mg tablet, fed vs fasted
structure (smiles),measurement,setting,value
Cc1nc(-c2cnc(N3CCN(CCCc4c[nH]c5ccc(C#N)cc45)CC3)nc2)sc1C(N)=O [HEC113995PA·H2O],safety and tolerability,"[1]; 20 mg fasting, after a standard meal and after a high-fat meal",good safety and tolerability
same,TRAE incidence: elevated blood bilirubin,[1]; [3],5.6%
same,TRAE incidence: elevated conjugated bilirubin,[1]; [3],5.6%
same,TRAE: elevated blood triglycerides,[1]; [4],1 case
same,TRAE: elevated blood uric acid,[1]; [4],2 cases
same,TRAE: nausea,[1]; [4],1 case
same,TEAE incidence,[1]; [5],27.8%
same,TRAE incidence,[1]; [5],27.8%
same,TRAE: elevated blood uric acid,[1]; [6],2 cases
same,TRAE: nausea,[1]; [6],1 case
same,TRAE incidence,"[1]; FE trial 20 mg, after a standard meal, 3 incidents",16.7%
same,TEAE incidence,"[1]; FE trial 20 mg, after a standard meal, 4 incidents",22.2%
same,TEAE incidents,"[1]; FE trial 20 mg, fasting administration",6 incidents
same,TRAE incidence,"[1]; FE trial 20 mg, fasting administration, 4 incidents",22.2%
same,TRAE: elevated blood triglycerides,[1]; [7],1 case
same,TRAE: elevated blood uric acid,[1]; [7],1 case
same,TRAE: nausea,[1]; [7],2 cases
same,TRAE incidence: elevated blood triglycerides,[1]; [8],11.1%
same,TRAE incidence: nausea,[1]; [8],11.1%
same,TRAE incidence: elevated blood uric acid,"[1]; FE trial 20 mg, overall, 4 cases",22.2%
same,incidence of subjects experiencing TRAEs,"[1]; FE trial 20 mg, overall, 9 subjects, 13 TRAEs",50.0%
same,incidence of subjects experiencing TEAE,"[1]; FE trial 20 mg, overall, 11 subjects, 20 incidents",61.1%
same,severity of all TRAEs,"[1]; FE trial 20 mg, resolved spontaneously without treatment",Grade 1
same,Cmax,[2]; [9],63 ng/mL
same,MRT,[2]; [9],38.3 h
same,half-life,[2]; [9],29 h
same,Vd/F,[2]; [9],447 L
same,Tmax,"[2]; both sexes, human, plasma, single oral 20 mg, fasted",4 h
same,Cmax,[2]; [10],117 ng/mL
same,MRT,[2]; [10],35.8 h
same,half-life,[2]; [10],30.5 h
same,Vd/F,[2]; [10],297 L
same,Tmax,"[2]; both sexes, human, plasma, single oral 20 mg, fed with high-fat, high-calorie meal",5 h
same,Cmax,[2]; [11],106 ng/mL
same,MRT,[2]; [11],35.4 h
same,half-life,[2]; [11],29.5 h
same,Vd/F,[2]; [11],298 L
same,Tmax,"[2]; both sexes, human, plasma, single oral 20 mg, fed with standard meal",5 h
same,AUC(0-inf),[2]; [9],1960 ng·h/mL
same,AUC(0-t),[2]; [9],1860 ng·h/mL
same,"food effect, increases in exposure parameters",[2]; discussion summary,52%–93
same,food impact on Tmax and t1/2,[2]; single 20 mg tablet,no significant impacts
same,increase of AUC0-∞ by food intake,[2]; [12],52.15∼58.20%
same,increase of Cmax by food intake,[2]; [12],77.09∼93.45%
same,"increase of AUC0-∞, high-fat meal vs standard meal","[2]; single 20 mg tablet, P > 0.05",3.97%
same,"increase of Cmax, high-fat meal vs standard meal","[2]; single 20 mg tablet, P > 0.05",9.24%
same,CL/F,"[2]; single oral 20 mg, fasted, N = 18, mean (SD)",10.8 (2.5) L/h
same,CL/F,"[2]; single oral 20 mg, fed with high-fat, high-calorie meal, N = 18, mean (SD)",6.8 (1.5) L/h
same,CL/F,"[2]; single oral 20 mg, fed with standard meal, N = 18, mean (SD)",7.1 (1.6) L/h
same,duration of immobility,mice,significantly reduce
